Read-outs that look alike come from different tables or passages of the source.
Experiments:
Format in all cases: binding
HLA-B*07:02 = HLA-B*07:02 (Homo sapiens, UniProt P01889); conditions: percent relative the binding of positive control peptide […]; duplicated experiments; positive binder >40%
HLA-A*30:01 = HLA-A*30:01 (Homo sapiens, UniProt P04439, D140H/D185E/E176W/F33S/G80R/H175R/K168Q/R138E/R41S); conditions: duplicated experiments, positive binder >40%
HLA-C*07:01 = HLA-C*07:01 (Homo sapiens, UniProt P10321, K90N/S123Y); conditions: duplicated experiments, positive binder >40%
HLA-A*30:02 = HLA-A*30:02 (Homo sapiens, UniProt P04439, D101N/D140H/D185E/E176R/F33S/G80R/H175R/K168Q/Q94H/R138E/R41S/V100E); conditions: duplicated experiments, positive binder >40%
HLA-A*02:01 = HLA-A*02:01 (Homo sapiens, UniProt P04439, D140Y/D185E/D98H/E176V/E277Q/G131W/G231S/I119V/I121R/I166T/I218V/L300P/L318F/N151K/N90K/P208A/P217A/Q86G/Q94H/R138H/R169H/T345S)
HLA-B*58:01 = HLA-B*58:01 (Homo sapiens, UniProt P01889, A329T/C349S/D201E/D98Y/E176V/E187L/E204Q/E69T/G107R/I218V/I90N/K202T/L105A/L119I/N104I/N87E/Q89R/Q94S/R106L/R155S/R180L/R86G/S101N/S121R/S35A/S48A/T118I/V127L/V306I/V36M/Y140S/Y91M); conditions: duplicated experiments, positive binder >40%
HLA-A*68:01 = HLA-A*68:01 (Homo sapiens, UniProt P04439, A269V/D185E/E176V/E277Q/E87N/F33Y/G231S/I121M/I166T/I218V/L180W/L300P/L318F/N151K/P208A/P217A/Q86R/R169H/T345S); conditions: duplicated experiments, positive binder >40%
HLA-A*24:02 = HLA-A*24:02 (Homo sapiens, UniProt P04439, D101N/D140Y/D185E/E176V/E190D/F33S/G103R/G107R/I119L/I121M/I306V/K335N/L105A/L180Q/L300P/N151K/N90K/Q86E/Q94H/R106L/R138H/R89G/T104I/T345S/V100E/W191G/Y123F)
[1] = percent relative the binding of positive control peptide […]
[2] = percent relative the binding of positive control peptide […], plate-bound monomer 0.5 µg/ml, duplicated experiments, positive binder >40%
[3] = percent relative the binding of positive control peptide […], duplicated experiments, positive binder >40%

| Substance | Bind B*07:02 (HLA-B*07:02) [%] | Bind A*30:01 (HLA-A*30:01; [1]) [%] | Bind C*07:01 (HLA-C*07:01; [1]) [%] | Bind A*30:02 (HLA-A*30:02; [1]) [%] | Bind A*02:01 (HLA-A*02:01; [2]) [%] | Bind B*58:01 (HLA-B*58:01; [1]) [%] | Bind A*68:01 (HLA-A*68:01; [1]) [%] | Bind A*24:02 (HLA-A*24:02; [3]) [%] | Bind A*30:01 (HLA-A*30:01; percent relative the binding of positive control peptide KTKDIVNGL) [%] | Bind C*07:01 (HLA-C*07:01; percent relative the binding of positive control peptide KYFDEHYEY) [%] | Bind A*30:02 (HLA-A*30:02; percent relative the binding of positive control peptide KIQNFRVYY) [%] | Bind A*02:01 (HLA-A*02:01; percent relative the binding of positive control peptide FLPSDFFPSV, plate-bound monomer 0.5 µg/ml, duplicated experiments, positive binder >40%) [%] | Bind B*58:01 (HLA-B*58:01; percent relative the binding of positive control peptide IAMESIVIW) [%] | Bind A*68:01 (HLA-A*68:01; percent relative the binding of positive control peptide KTGGPIYKR) [%] | Bind A*24:02 (HLA-A*24:02; percent relative the binding of positive control peptide RYLKDQQLL, duplicated experiments, positive binder >40%) [%] | Bind A*24:02 (HLA-A*24:02) | Bind A*02:01 (HLA-A*02:01) |
| --- | --- | --- | --- | --- | --- | --- | --- | --- | --- | --- | --- | --- | --- | --- | --- | --- | --- |
| CGNGTPNEL | 0 | 0 | 28 | 41 | 20 | 0 | 0 | 2 |  |  |  |  |  |  |  |  |  |
| GKAGCQTYK | 9 | 34 | 0 | 58 | 33 | 22 | 72 | 19 |  |  |  |  |  |  |  |  |  |
| YNAAGGHNA | 0 | 10 | 12 | 53 | 16 | 46 | 32 | 0 |  |  |  |  |  |  |  |  |  |
| LSANRAVKP | 11 | 49 | 24 | 15 | 17 | 0 | 0 | 27 |  |  |  |  |  |  |  |  |  |
| PTQQIPKLV | 5 | 10 | 22 | 86 | 3 | 9 | 0 | 11 |  |  |  |  |  |  |  |  |  |
| MILAAYHPQ | 0 | 0 | 4 | 82 | 56 | 11 | 0 | 0 |  |  |  |  |  |  |  |  |  |
| TLQNLGAEI [Rv0288_24–32m1] |  |  |  |  | 26 |  |  | 4 |  |  |  |  |  |  |  |  |  |
| YHPQQFIYA | 0 | 3 | 15 | 0 | 49 | 9 | 0 | 0 |  |  |  |  |  |  |  |  |  |
| QNLGAEIAV [Rv0288_26–34m1] |  |  |  |  | 28 | 0 |  |  |  |  |  |  |  |  |  |  |  |
| GPSLIGLAM | 85 | 0 | 0 | 0 | 11 | 18 | 6 | 0 |  |  |  |  |  |  |  |  |  |
| KGDLQSSLG | 6 | 20 | 25 | 13 | 10 | 0 | 40 | 4 |  |  |  |  |  |  |  |  |  |
| NAVFNFPPN | 5 | 0 | 2 | 70 | 24 | 28 | 27 | 14 |  |  |  |  |  |  |  |  |  |
| LAMGDAGGY | 2 | 0 | 0 | 74 | 10 | 39 | 56 | 0 |  |  |  |  |  |  |  |  |  |
| QQFIYAGSL | 0 | 0 | 27 | 80 | 42 | 8 | 0 | 0 |  |  |  |  |  |  |  |  |  |
| GGHNAVFNF | 19 | 0 | 22 | 0 | 40 | 52 | 0 | 34 |  |  |  |  |  |  |  |  |  |
| AQLNAMKGD | 0 | 0 | 3 | 56 | 10 | 0 | 0 | 29 |  |  |  |  |  |  |  |  |  |
| ALLDPSQGM | 17 | 5 | 22 | 86 | 60 | 1 | 0 | 0 |  |  |  |  |  |  |  |  |  |
| SLSALLDPS | 1 | 2 | 11 | 3 | 57 | 18 | 0 | 4 |  |  |  |  |  |  |  |  |  |

| Substance | Bind B*07:02 (HLA-B*07:02) [%] | Bind A*30:01 (HLA-A*30:01; [1]) [%] | Bind C*07:01 (HLA-C*07:01; [1]) [%] | Bind A*30:02 (HLA-A*30:02; [1]) [%] | Bind A*02:01 (HLA-A*02:01; [2]) [%] | Bind B*58:01 (HLA-B*58:01; [1]) [%] | Bind A*68:01 (HLA-A*68:01; [1]) [%] | Bind A*24:02 (HLA-A*24:02; [3]) [%] | Bind A*30:01 (HLA-A*30:01; percent relative the binding of positive control peptide KTKDIVNGL) [%] | Bind C*07:01 (HLA-C*07:01; percent relative the binding of positive control peptide KYFDEHYEY) [%] | Bind A*30:02 (HLA-A*30:02; percent relative the binding of positive control peptide KIQNFRVYY) [%] | Bind A*02:01 (HLA-A*02:01; percent relative the binding of positive control peptide FLPSDFFPSV, plate-bound monomer 0.5 µg/ml, duplicated experiments, positive binder >40%) [%] | Bind B*58:01 (HLA-B*58:01; percent relative the binding of positive control peptide IAMESIVIW) [%] | Bind A*68:01 (HLA-A*68:01; percent relative the binding of positive control peptide KTGGPIYKR) [%] | Bind A*24:02 (HLA-A*24:02; percent relative the binding of positive control peptide RYLKDQQLL, duplicated experiments, positive binder >40%) [%] | Bind A*24:02 (HLA-A*24:02) | Bind A*02:01 (HLA-A*02:01) |
| --- | --- | --- | --- | --- | --- | --- | --- | --- | --- | --- | --- | --- | --- | --- | --- | --- | --- |
| GSAAIGLSM | 38 | 0 | 66 | 9 | 31 | 38 | 5 | 7 |  |  |  |  |  |  |  |  |  |
| AIQGNVTSI [Rv3875_17-25] | 4 |  |  |  |  |  |  |  | 0 | 14 | 49 | 45 | 21 | 29 | 9 |  |  |
| AGGYKAADM | 0 | 0 | 0 | 85 | 0 | 0 | 0 | 0 |  |  |  |  |  |  |  |  |  |
| GNNSPAVYL | 0 | 0 | 51 | 0 | 0 | 0 | 3 | 6 |  |  |  |  |  |  |  |  |  |
| KPTGSAAIG | 51 | 0 | 0 | 0 | 0 | 0 | 0 | 0 |  |  |  |  |  |  |  |  |  |
| YLLDGLRAQ | 0 | 0 | 0 | 10 | 111 | 0 | 15 | 0 |  |  |  |  |  |  |  |  |  |
| YYQSGLSIV | 0 | 29 | 25 | 37 | 98 | 0 | 5 |  |  |  |  |  |  |  |  | 130 |  |
| AMILAAYHP | 1 | 0 | 1 | 33 |  | 64 | 0 | 0 |  |  |  |  |  |  |  |  | 34 |
| NAMKGDLQS | 6 | 6 | 20 | 0 | 14 | 0 | 15 | 45 |  |  |  |  |  |  |  |  |  |
| PSSDPAW ER | 10 | 0 | 18 | 0 | 1 | 2 | 53 | 0 |  |  |  |  |  |  |  |  |  |
| VRAYHSMSS [Rv0288_66–74m1] |  |  | 3 |  |  |  |  |  |  |  |  |  |  |  |  |  |  |
| YNYPAMLDH [Rv0288_6–14m2] |  |  | 0 |  |  |  |  |  |  |  |  |  |  |  |  |  |  |
| DLVRAYHSM [Rv0288_64–72m1] |  |  |  |  |  |  | 4 | 0 |  |  |  |  |  |  |  |  |  |
| YNYPTMLGH [Rv0288_6–14m1] |  |  | 0 |  |  |  |  |  |  |  |  |  |  |  |  |  |  |
| NLGAEIAVE [Rv0288_27–35m1] |  |  |  |  | 29 |  |  |  |  |  |  |  |  |  |  |  |  |
| YNYPTMLDH [Rv0288_6–14m3] |  |  | 0 |  |  |  |  |  |  |  |  |  |  |  |  |  |  |
| TMLDHAGDM [Rv0288_10–18m3] |  |  |  | 0 | 24 |  |  | 14 |  |  |  |  |  |  |  |  |  |
